Data: patent US10626364B2, “Method for increasing the glutathione level in cells” (Merck Patent GmbH, priority 2015, dated 2020)

Legend:
Type in all cases: cell-based
CHO suspension cell line = assay: Bioreactor fed-batch experiment, IgG concentration in the supernatant (Cedex BioHT, turbidometric method); conditions: 15 mM SS in neutral pH main Feed-220, compared to standard (150 mM L-cysteine in separate alkaline feed); FIG. 1
Procedure: Bioreactor Fed-Batch Experiment in Cellvento® CHO 220 Medium and Feed 220 Using a CHO Suspension Cell Line in 1.2 L Glass Bioreactors.
15 mM S-sulfo-L-cysteine (SS) was integrated in the neutral pH main Feed-220 (n=5). Feed was added at 3% (v/v) at day 3 and 6% (v/v) at days 5, 7, 9 and 14. In the control condition, the feed without SS was added at the same ratios whereas 150 mM L-cysteine was added separately in an alkaline feed and added at following ratios 0.3% (v/v) at day 3 and 6% (v/v) at days 5, 7, 9, 14 (n=2). pH was controlled at 6.95+/−0.15. Dissolved oxygen concentration was controlled at 50% air saturation by sparging with pure oxygen and air via an open pipe sparger. Temperature was set at 37° C. and shifted from 37° C. to 33° C. on day 5 of culture. Agitation was maintained at 140 rpm. The IgG concentration in the supernatant was measured using the Cedex BioHT with a turbidometric method. It can be seen that the titer (IgG concentration) is higher with SS compared to standard.

CHO cells [1] = assay: Intracellular reactive species in fed-batch, Carboxy-H2DCFDA staining; conditions: 15 mM SSC condition vs control condition, FIG. 2
Procedure: Intracellular Reactive Species in CHO Cells in a Fed-Batch Using S-Sulfocysteine Vs the Control Process
Intracellular reactive species were quantified using 6-carboxy-2′,7′-dichlorodihydrofluorescein diacetate staining (Carboxy H2DCFDA, Life Technologies). The increase in fluorescence due to oxidative reactions was determined using a Perkin Elmer fluorescence reader. For these experiments, measurements were done during fed batch experiments comparing the control condition and 15 mM SSC condition. Samples were taken every day and analyzed immediately. Briefly, 3×10^5 cells were centrifuged (1200 rpm, 5 min) and either resuspended in PBS (negative control) or loaded with 50 μM Carboxy-H2DCFDA and incubated for 20 min at 37° C. and 1000 rpm. Cells were then centrifuged, resuspended in PBS and analyzed using the plate reader (n=3 for both conditions).

CHO cells [2] = assay: Intracellular total glutathione (GSH and GSSG) during fed-batch, UPLC; conditions: equivalent amounts of cysteine or S-sulfocysteine, compared to cells with cysteine
Procedure: Intracellular Total Glutathione in CHO Cells During a Fed-Batch Using S-Sulfocysteine Vs the Control Process
To quantify intracellular total glutathione, cells were washed three times in cold PBS and frozen at −20° C. for further analysis. To inhibit the activity of potential Cys-converting enzymes, 12×10^6 cells were lysed in 100 μl of phosphoSafe reagent (Merck Millipore) containing four phosphatase inhibitors: sodium fluoride, sodium vanadate, β-glycerophosphate and sodium pyrophosphate and supplemented with 20 mM iodoacetamide (alkylation of all enzyme containing one cysteine in the active site). The glutathione concentrations (GSH and GSSG) were determined via UPLC using a pre-column derivatization relying on AccQ Tag Ultra® reagent kit. Derivatization, chromatography and data analysis were carried out following the supplier recommendations (Waters, Milford, Mass.). Total glutathione was obtained by addition of GSH and GSSG and normalized to the concentration obtained in the control condition each day of the FB process.

With `N[C@H](CSS(=O)(=O)O)C(=O)O` [S-sulfocysteine, (S)-2-amino-3-sulfosulfanylpropanoic acid] the “titer (IgG concentration)” value (CHO suspension cell line) was “higher”, the “fluorescence intensity (intracellular reactive species)” value (CHO cells [1]) was “lower fluorescence intensity” and the “amount of GSH in cells” value (CHO cells [2]) was “higher amount of GSH”.
